Measurements as given in patent publication US20240376094A2, “SELECTIVE BCL-XL PROTAC COMPOUNDS AND METHODS OF USE” (Les Laboratoires Servier, priority 2021, published 2024).

Assays:
Assay type in all cases: cell-based
COR-L105 = experiment: CellTiter-Glo proliferation assay, COR-L105; details: Homo sapiens, COR-L105, 120 h, COR-L105, 5 days; for Emax: read-out: COR-L105 Span (max)
Outline: (§1)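 Both lines grown in RPMI-1640 + 10% FBS. COR-L105 plated flat at 1,000 cells/well overnight; NCI-H1650 grown as spheroids, 3,000 cells/well, 72 h. Compounds at 0.508 nM-10 μM final for 5 days, 37° C. ATP read by CellTiter-Glo (3D version for spheroids); IC50 from variable-slope fit normalized to untreated cells.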

NCI-H1650 = experiment: CellTiter-Glo 3D proliferation assay, NCI-H1650 spheroids; details: Homo sapiens, NCI-H1650, 120 h, 5 days; for Emax: read-out: NCI-H1650 Span (Amax)
Outline: as §1

Bcl-xL = target: T1, Bcl-xL (Homo sapiens, UniProt Q07817); experiment: HCT116 Bcl-xL degradation, capillary-based immunoassay (WES); details: for DC50: HCT116, 24 h, 9-point serial dilution; for remaining activity at 0.01 µM / remaining activity at 0.1 µM: HCT-116, 24 h, % of untreated cells; for remaining activity at 0.01 µM: HCT116, 10 nM; for remaining activity at 0.1 µM: HCT116, 100 nM
T1 construct: Measured levels of Bcl-xL protein of HCT116 cells treated with the tested compounds; host or cells: HCT116
T1 sequence (Q07817 whole entry): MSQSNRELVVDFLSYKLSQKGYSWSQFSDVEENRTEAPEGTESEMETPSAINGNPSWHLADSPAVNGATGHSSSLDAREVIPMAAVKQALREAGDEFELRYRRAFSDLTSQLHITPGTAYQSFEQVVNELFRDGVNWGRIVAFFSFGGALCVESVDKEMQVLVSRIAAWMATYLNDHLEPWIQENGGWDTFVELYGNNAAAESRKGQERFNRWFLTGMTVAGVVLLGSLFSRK
Outline: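 HCT116 cells treated 24 h with compound at 10/100 nM and/or 9-point dilution (quadruplicates), then lysed. Bcl-xL measured by capillary WES immunoassay, normalized to cofilin and expressed as % of untreated cells. DC50 from four-parameter curve fit.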

## Cc1ncsc1-c1ccc([C@H](C)NC(=O)[C@@H]2C[C@@H](O)CN2C(=O)[C@@H](NC(=O)CC23CC4CC(C2)CC(CC(=O)N2CCN(CC#Cc5ccc(OCCCc6sc(N7CCCc8c7nnc(Nc7nc9ccccc9s7)c8C)nc6C(=O)O)c(F)c5)CC2)(C4)C3)C(C)(C)C)cc1 [Example 42, 2-(3-(benzo[d]thiazol-2-ylamino)-4-methyl-6,7-dihydropyrido [2,3-c]pyridazin-8(5H)-yl)-5-(3-(2-fluoro-4-(3-(4-(2-((3S,5R)-3-(2-(((S)-1-((2S,4R)-4-hydroxy-2-(((S)-1-(4-(4-methylthiazol-5-yl)phenyl)ethyl)carbamoyl)pyrrolidin-1-yl)-3,3-dimethyl-1-oxobutan-2-yl)amino)-2-oxoethyl)adamantan-1-yl)acetyl)piperazin-1-yl)prop-1-yn-1-yl)phenoxy)propyl)thiazole-4-carboxylic acid]
COR-L105
  IC50: 290 nM
  Emax: 91.8%
NCI-H1650
  IC50: 3.4 nM
  Emax: 137%

## Cc1ncsc1-c1ccc([C@H](C)NC(=O)[C@@H]2C[C@@H](O)CN2C(=O)[C@@H](NC(=O)CCCCCCCCN(C)CCOC23CC4(C)CC(C)(CC(Cn5ncc(-c6ccc(N7CCCc8c7nnc(Nc7nc9ccccc9s7)c8C)nc6C(=O)O)c5C)(C4)C2)C3)C(C)(C)C)cc1 [Example 5, 6-[3-(1,3-benzothiazol-2-ylamino)-4-methyl-6,7-dihydro-5H-pyrido[2,3-c]pyridazin-8-yl]-3-[1-[[3-[2-[[9-[[(1S)-1-[(2S,4R)-4-hydroxy-2-[[(1S)-1-[4-(4-methylthiazol-5-yl)phenyl]ethyl]carbamoyl]pyrrolidine-1-carbonyl]-2,2-dimethyl-propyl]amino]-9-oxo-nonyl]-methyl-amino]ethoxy]-5,7-dimethyl-1-adamantyl]methyl]-5-methyl-pyrazol-4-yl]pyridine-2-carboxylic acid]
Bcl-xL
  DC50: 2.45 nM
  remaining activity at 0.01 µM: 54%
  remaining activity at 0.1 µM: 19%

## Cc1ncsc1-c1ccc(CNC(=O)[C@@H]2C[C@@H](O)CN2C(=O)[C@@H](NC(=O)CCCCCCCCCCC(=O)N2CCN(CC#Cc3ccc(OCCCc4sc(N5CCCc6c5nnc(Nc5nc7ccccc7s5)c6C)nc4C(=O)O)c(F)c3)CC2)C(C)(C)C)cc1 [Example 48, 2-(3-(benzo[d]thiazol-2-ylamino)-4-methyl-6,7-dihydropyrido [2,3-c]pyridazin-8(5H)-yl)-5-(3-(2-fluoro-4-(3-(4-(12-(((S)-1-((2S,4R)-4-hydroxy-2-((4-(4-methylthiazol-5-yl)benzyl)carbamoyl)pyrrolidin-1-yl)-3,3-dimethyl-1-oxobutan-2-yl)amino)-12-oxododecanoyl)piperazin-1-yl)prop-1-yn-1-yl)phenoxy)propyl)thiazole-4-carboxylic acid]
COR-L105
  IC50: 111 nM
  Emax: 94%
NCI-H1650
  IC50: 23.7 nM
  Emax: 88.6%

## Cc1ncsc1-c1ccc(CNC(=O)[C@@H]2C[C@@H](O)CN2C(=O)[C@@H](NC(=O)CCCCCCC(=O)N2CCN(CC#Cc3ccc(OCCCc4sc(N5CCCc6c5nnc(Nc5nc7ccccc7s5)c6C)nc4C(=O)O)c(F)c3)CC2)C(C)(C)C)cc1 [Example 33, 2-(3-(benzo[d]thiazol-2-ylamino)-4-methyl-6,7-dihydropyrido [2,3-c]pyridazin-8(5H)-yl)-5-(3-(2-fluoro-4-(3-(4-(8-(((S)-1-((2S,4R)-4-hydroxy-2-((4-(4-methylthiazol-5-yl)benzyl)carbamoyl)pyrrolidin-1-yl)-3,3-dimethyl-1-oxobutan-2-yl)amino)-8-oxooctanoyl)piperazin-1-yl)prop-1-yn-1-yl)phenoxy)propyl) thiazole-4-carboxylic acid]
COR-L105
  IC50: 93.7 nM
  Emax: 76.4%
NCI-H1650
  IC50: 8.06 nM
  Emax: 89.1%

## Cc1ncsc1-c1ccc([C@H](C)NC(=O)[C@@H]2C[C@@H](O)CN2C(=O)[C@@H](NC(=O)CCCC(=O)N2CCN(CC#Cc3ccc(OCCCc4sc(N5CCCc6c5nnc(Nc5nc7ccccc7s5)c6C)nc4C(=O)O)c(F)c3)CC2)C(C)(C)C)cc1 [Example 35, 2-(3-(benzo[d]thiazol-2-ylamino)-4-methyl-6,7-dihydropyrido [2,3-c]pyridazin-8(5H)-yl)-5-(3-(2-fluoro-4-(3-(4-(5-(((S)-1-((2S,4R)-4-hydroxy-2-(((S)-1-(4-(4-methylthiazol-5-yl)phenyl)ethyl)carbamoyl)pyrrolidin-1-yl)-3,3-dimethyl-1-oxobutan-2-yl)amino)-5-oxopentanoyl)piperazin-1-yl)prop-1-yn-1-yl)phenoxy)propyl)thiazole-4-carboxylic acid]
COR-L105
  IC50: 90.2 nM
  Emax: 87.9%
NCI-H1650
  IC50: 7.7 nM
  Emax: 88.5%

## Cc1ncsc1-c1ccc([C@H](C)NC(=O)[C@@H]2C[C@@H](O)CN2C(=O)[C@@H](NC(=O)CCCCCCCCCCCCCCCN(C)CCOC23CC4(C)CC(C)(CC(Cn5ncc(-c6ccc(N7CCCc8c7nnc(Nc7nc9ccccc9s7)c8C)nc6C(=O)O)c5C)(C4)C2)C3)C(C)(C)C)cc1 [Example 1, 6-[3-(1,3-benzothiazol-2-ylamino)-4-methyl-6,7-dihydro-5H-pyrido[2,3-c]pyridazin-8-yl]-3-[1-[[3-[2-[[16-[[(1S)-1-[(2S,4R)-4-hydroxy-2-[[(1S)-1-[4-(4-methylthiazol-5-yl)phenyl]ethyl]carbamoyl]pyrrolidine-1-carbonyl]-2,2-dimethyl-propyl]amino]-16-oxo-hexadecyl]-methyl-amino]ethoxy]-5,7-dimethyl-1-adamantyl]methyl]-5-methyl-pyrazol-4-yl]pyridine-2-carboxylic acid]
Bcl-xL
  DC50: 0.329 nM
  remaining activity at 0.01 µM: 21%
  remaining activity at 0.1 µM: 9%

## Cc1ncsc1-c1ccc([C@H](C)NC(=O)[C@@H]2C[C@@H](O)CN2C(=O)[C@@H](NC(=O)CCCCCCCN(C)CCOC23CC4(C)CC(C)(CC(Cn5ncc(-c6ccc(N7CCCc8c7nnc(Nc7nc9ccccc9s7)c8C)nc6C(=O)O)c5C)(C4)C2)C3)C(C)(C)C)cc1 [Example 6, 6-[3-(1,3-benzothiazol-2-ylamino)-4-methyl-6,7-dihydro-5H-pyrido[2,3-c]pyridazin-8-yl]-3-[1-[[3-[2-[[8-[[(1S)-1-[(2S,4R)-4-hydroxy-2-[[(1S)-1-[4-(4-methylthiazol-5-yl)phenyl]ethyl]carbamoyl]pyrrolidine-1-carbonyl]-2,2-dimethyl-propyl]amino]-8-oxo-octyl]-methyl-amino]ethoxy]-5,7-dimethyl-1-adamantyl]methyl]-5-methyl-pyrazol-4-yl]pyridine-2-carboxylic acid]
Bcl-xL
  DC50: 2.94 nM
  remaining activity at 0.01 µM: 69%
  remaining activity at 0.1 µM: 22%

## Cc1ncsc1-c1ccc(CNC(=O)C2C[C@@H](O)CN2C(=O)C(NC(=O)CCCCCC(=O)N2CCN(CC#Cc3ccc(OCCCc4sc(N5CCCc6c5nnc(Nc5nc7ccccc7s5)c6C)nc4C(=O)O)c(F)c3)CC2)C(C)(C)C)cc1 (stereo in doubt) [Example 15, 2-[3-(1,3-benzothiazol-2-ylamino)-4-methyl-6,7-dihydro-5H-pyrido[2,3-c]pyridazin-8-yl]-5-[3-[2-fluoro-4-[3-[4-[7-[[(1S)-1-[(2S,4R)-4-hydroxy-2-[[4-(4-methylthiazol-5-yl)phenyl]methylcarbamoyl]pyrrolidine-1-carbonyl]-2,2-dimethyl-propyl]amino]-7-oxo-heptanoyl]piperazin-1-yl]prop-1-ynyl]phenoxy]propyl] thiazole-4-carboxylic acid]
Bcl-xL
  DC50: 0.462 nM
  remaining activity at 0.01 µM: 39%
  remaining activity at 0.1 µM: 23%

## Cc1ncsc1-c1ccc([C@H](C)NC(=O)[C@@H]2C[C@@H](O)CN2C(=O)[C@@H](NC(=O)CCCCCCCCCCCN2CCN(CC#Cc3ccc(OCCCc4sc(N5CCCc6c5nnc(Nc5nc7ccccc7s5)c6C)nc4C(=O)O)c(F)c3)CC2)C(C)(C)C)cc1 [Example 51, 2-(3-(benzo[d]thiazol-2-ylamino)-4-methyl-6,7-dihydropyrido [2,3-c]pyridazin-8(5H)-yl)-5-(3-(2-fluoro-4-(3-(4-(12-(((S)-1-((2S,4R)-4-hydroxy-2-(((S)-1-(4-(4-methylthiazol-5-yl)phenyl)ethyl)carbamoyl)pyrrolidin-1-yl)-3,3-dimethyl-1-oxobutan-2-yl)amino)-12-oxododecyl)piperazin-1-yl)prop-1-yn-1-yl)phenoxy)propyl)thiazole-4-carboxylic acid]
COR-L105
  IC50: 37.6 nM
  Emax: 72.8%
NCI-H1650
  IC50: 4.23 nM
  Emax: 90.8%

## Cc1ncsc1-c1ccc([C@H](C)NC(=O)C2CC(O)CN2C(=O)C(NC(=O)CCCCCCCCCCCN2CCN(CC#Cc3ccc(OCCCc4sc(N5CCCc6c5nnc(Nc5nc7ccccc7s5)c6C)nc4C(=O)O)c(F)c3)CC2)C(C)(C)C)cc1 (stereo in doubt) [Example 31, 2-[3-(1,3-benzothiazol-2-ylamino)-4-methyl-6,7-dihydro-5H-pyrido[2,3-c]pyridazin-8-yl]-5-[3-[2-fluoro-4-[3-[4-[12-[[(1S)-1-[(2S,4R)-4-hydroxy-2-[[(1S)-1-[4-(4-methylthiazol-5-yl)phenyl]ethyl]carbamoyl]pyrrolidine-1-carbonyl]-2,2-dimethyl-propyl]amino]-12-oxo-dodecyl]piperazin-1-yl]prop-1-ynyl]phenoxy]propyl] thiazole-4-carboxylic acid]
Bcl-xL
  DC50: 1.22 nM
  remaining activity at 0.01 µM: 11%
  remaining activity at 0.1 µM: 6%
